Experimental findings from patent US20240299400A1, “Transcription Factor GLI1 Inhibitors and Uses Thereof” (University of Connecticut, priority 2023, published 2024) are described below.

Test [1] concerns GLI1 mRNA expression. Description: RT-qPCR GLI1 mRNA expression in Sufu-KO MEFs. In kind it is cell-based, mouse. How it is done: (§1) ASZ001 and Sufu-KO cells were seeded in 96-well plates (10,000/well, 100 μL) and incubated overnight under growth conditions. On the second day, ‘growth’ media was removed and replaced by ‘assay’ media (100 μL). On the third day, cells were treated with a serial dilution of drugs or DMSO for 48 h. mRNA expression was determined through Taqman Fast Cells-to-CT Kit (#4399003) per the manufacturer's instructions. In brief, cells were washed with chilled PBS, then mixed with lysis solution containing DNase I and incubated at RT for 5 min. Stop solution was then added to quench the lysis reagents. cDNA was then synthesized through a BioRad MyCycler following addition of reverse transcriptase. Finally, the cDNA was amplified through an ABI 7500 system following addition of Taqman Fast Universal PCR Master Mix and Taqman Gene Expression Primer. Relative gene expression levels were computed by the ΔΔCt method. Values represent mRNA expression relative to DMSO control (set at 1.0). Data were analyzed using GraphPad Prism, and IC50 values are the mean±SEM for at least two separate experiments performed in triplicate. Primers used are as follows: mouse ActB (Mm00607939_s1); mouse GLI1 (Mm00494645_ml); mouse Gli2 (Mm01293117_ml); mouse Ptch1 (Mm00436026_ml); mouse Hhip (Mm00469580_ml).

The test system of test [2] is GLI1 mRNA expression. The test can be described thus: RT-qPCR GLI1 mRNA expression in ASZ001 BCC cells. The following applies: for reduction of GLI1 expression in ASZ001 (in words): concentrations up to 10 μM. In kind it is cell-based, mouse. How it is done: as §1
The subject of a further test is ASZ001 cells. The test can be described thus: MTS anti-proliferative assay in ASZ001 cells. Conditions: Mus musculus, ASZ001, Ave ± SEM. In kind it is cell-based, murine. How it is done: Cell viability was assessed by MTS proliferation assay kit (Promega) per manufacturer's protocol. Briefly, 2×10^4 cells were plated in a 96-well plate in 100 μL growth medium to make the cell population at ˜80% confluence. After 24 h, 1 μL drug solution was added to each well. DMSO was used as vehicle compound. After 48 h incubation (37° C., 5% CO2), 20 μL of freshly prepared 3-(4,5-dimethylthiazol-2-yl)-5-(3-carboxymethoxyphenyl)-2-(4-sulfophenyl)-2H-tetrazolium (MTS)/phenazine methosulfate (PMS) solution was added to each well, and the plate was returned to the incubator for 1 h. Absorbance at 490 nm was recorded, and the result was analyzed by GraphPad Prism 5. GI50 values represent mean±SEM for at least two separate experiments performed in triplicate.

For test [3], the system named is GLI1 mRNA expression. The test can be described thus: RT-qPCR GLI1 mRNA expression in OHCs-stimulated C3H10T1/2 MEFs. In kind it is cell-based, mouse. The following applies: for % Gli1 Expression: C3H10T1/2 MEFs, 10 μM, relative to Hh-agonist OHCs (set as 100%). Here is the method: as §1
C3H10T1/2 MEFs were seeded in 24-well plates (50,000/well, 500 μL). Following 24 h incubation, the ‘growth’ media was removed and replaced with ‘assay’ media (500 μL). On the third day, cells were treated with either DMSO, OHCs, or OHCs+drugs. Following a 24 h incubation, gene expression analysis was carried out following identical protocols as described above.

Where [4] appears, read: Mus musculus, Table 5, GLI1 mRNA, Ave ± SEM, read-out: RT-qPCR, IC50 Sufu-KO.
Where [5] appears, read: Mus musculus, ASZ001, Table 5, GLI1 mRNA, Ave ± SEM, read-out: RT-qPCR, IC50 ASZ001.
The mark [6] stands for this setting: Table 2, mean ± SEM, read-out: GLI1 mRNA expression, IC50 C3H10T1/2.
[7] abbreviates: Table 4, racemates and enantiomers, mean ± SEM, read-out: RT-qPCR, IC50 C3H10T1/2.
The mark [8] stands for this setting: Table 2, mean ± SEM, read-out: GLI1 mRNA expression, IC50 Sufu-KO.
[9] abbreviates: Table 4, racemates and enantiomers, mean ± SEM, read-out: RT-qPCR, IC50 Sufu-KO.
The mark [10] stands for this setting: Table 2, mean ± SEM, read-out: GLI1 mRNA expression, IC50 ASZ001.
Setting [11] is: Table 4, racemates and enantiomers, mean ± SEM, read-out: RT-qPCR, IC50 ASZ001.
[12] abbreviates: Mus musculus, Table 7, GLI1 mRNA, Ave ± SEM, read-out: RT-qPCR, IC50 Sufu-KO.
The mark [13] stands for this setting: Mus musculus, ASZ001, Table 7, GLI1 mRNA, Ave ± SEM, read-out: RT-qPCR, IC50 ASZ001.

Some results are limits rather than exact numbers.

Consider `CCN(CC)c1ccc(C(Nc2ccccn2)c2cc(C)c3ccc(C)nc3c2O)cc1` (stereo not shown) [Compound 16, 7-((4-Diethylaminophenyl)(pyridin-2-ylamino)methyl)-2,5-dimethylquinolin-8-ol], for which the IC50 in the test with GLI1 mRNA expression [1] (setting [4]) was 980 ± 210 nM; with GLI1 mRNA expression [2] (setting [5]), 1600 ± 700 nM. The same compound showed a GI50 in the test on ASZ001 cells (Table 5, 48 h) of 15700 ± 2800 nM.
Turning to `Oc1c(C(Nc2ccccn2)c2c(F)cccc2Cl)ccc2cccnc12` (racemic) [Compound 12], the “% Gli1 Expression” value in the test on GLI1 mRNA expression [3] (mean ± SEM) came out at 6.5 ± 0.8%. The IC50 was found to be 730 ± 70 nM in the test with GLI1 mRNA expression [3] (setting [6]); 730 ± 70 nM in the test on GLI1 mRNA expression [3] (setting [7]); 1000 ± 200 nM with GLI1 mRNA expression [1] (setting [8]); 1000 ± 200 nM in the test on GLI1 mRNA expression [1] (setting [9]); 3600 ± 1500 nM with GLI1 mRNA expression [2] (setting [10]); 3600 ± 1500 nM in the test with GLI1 mRNA expression [2] (setting [11]).
As for `COc1c(C(Nc2ccccn2)c2ccc(N3CCCC3=O)cc2)ccc2ccc(C)nc12` (stereo not shown) [Compound 53, 1-(4-((8-Methoxy-2-methylquinolin-7-yl)(pyridin-2-ylamino)methyl)phenyl)pyrrolidin-2-one], the IC50 in the test on GLI1 mRNA expression [1] (setting [12]) is over 25000 nM; in the test on GLI1 mRNA expression [2] (setting [13]) it was 770 ± 30 nM. The compound further displayed a 50% growth inhibitory concentration (GI50) with ASZ001 cells (Table 7, 48 h) of 42900 ± 12200 nM.
As to `Cc1ccccc1C(Nc1ccccn1)c1ccc2cccnc2c1O` (racemic) [Compound 9], the “% Gli1 Expression” value in the test with GLI1 mRNA expression [3] (mean ± SEM) was 10.6 ± 1.9%. Further, the IC50 with GLI1 mRNA expression [3] (setting [6]) is 620 ± 190 nM; in the test on GLI1 mRNA expression [1] (setting [8]) it was 1900 ± 600 nM; in the test on GLI1 mRNA expression [2] (setting [10]), over 10000 nM. The “reduction of GLI1 expression in ASZ001 (in words)” value with GLI1 mRNA expression [2] is given as “did not reduce GLI1 expression”.
Regarding `CCOc1cccc(C(Nc2ccccn2)c2ccc3ccc(C)nc3c2O)c1` (racemic) [s6], in the test with GLI1 mRNA expression [3] (mean ± SEM), the “% Gli1 Expression” value is on record as 56.1 ± 2.1%.
In the case of `Cc1ccnc(NC(c2cccc(Cl)c2Cl)c2ccc3cccnc3c2O)c1` (racemic) [Compound 10], the “% Gli1 Expression” value with GLI1 mRNA expression [3] (mean ± SEM) was 18.2 ± 1.5%. The IC50 in the test with GLI1 mRNA expression [3] (setting [6]) stood at 210 ± 100 nM; with GLI1 mRNA expression [3] (setting [7]) it was 210 ± 100 nM; in the test on GLI1 mRNA expression [1] (setting [8]) it was 1500 ± 400 nM; in the test with GLI1 mRNA expression [1] (setting [9]), 1500 ± 400 nM; in the test with GLI1 mRNA expression [2] (setting [10]), 8400 ± 2000 nM; with GLI1 mRNA expression [2] (setting [11]) it was 8400 ± 2000 nM.
In the case of `CCN(CC)c1ccc(C(Nc2ccccn2)c2ccc3ccc(C)nc3c2OCc2cccc(OC)c2)cc1` (stereo not shown) [Compound 25, N-((4-Diethylaminophenyl)(8-(3-methoxybenzyloxy)-2-methylquinolin-7-yl)methyl)pyridin-2-amine], the IC50 in the test on GLI1 mRNA expression [1] (setting [4]) was over 25000 nM; with GLI1 mRNA expression [2] (setting [5]) it was 1300 ± 400 nM. Further, the GI50 with ASZ001 cells (Table 5, 48 h) is over 100000 nM.
Take `CCN(CC)c1ccc(C(Nc2ccccn2)c2ccc3ccc(C)nc3c2OCc2ccc(OC)cc2)cc1` (stereo not shown) [Compound 26, N-((4-Diethylaminophenyl)(8-(4-methoxybenzyloxy)-2-methylquinolin-7-yl)methyl)pyridin-2-amine]: the results for the IC50 with GLI1 mRNA expression [1] (setting [4]) and with GLI1 mRNA expression [2] (setting [5]) were over 25000 nM and 1200 ± 500 nM, respectively. The GI50 in the test on ASZ001 cells (Table 5, 48 h) is over 100000 nM.
With `Cc1ccc2ccc(C(Nc3ccccn3)c3ccccc3F)c(O)c2n1` (racemic) [s14], in the test on GLI1 mRNA expression [3] (mean ± SEM), the “% Gli1 Expression” value amounted to 78.9 ± 17.6%.
As to `CCN(CC)c1cccc(C(Nc2ccccn2)c2ccc3ccc(C)nc3c2O)c1` (stereo not shown) [Compound 36, 7-((3-Diethylaminophenyl)(pyridin-2-ylamino)methyl)-2-methylquinolin-8-ol], the IC50 with GLI1 mRNA expression [1] (setting [12]) was 5600 ± 1500 nM; in the test with GLI1 mRNA expression [2] (setting [13]), 15100 ± 4100 nM. In the test with ASZ001 cells (Table 7, 48 h), this compound displayed a GI50 of 82500 ± 20300 nM.
`Cc1ccc2ccc(C(Nc3ccccn3)c3ccc(Cl)c(Cl)c3)c(O)c2n1` (racemic) [Compound 11]: the “% Gli1 Expression” value in the test with GLI1 mRNA expression [3] (mean ± SEM) is recorded as 16.6 ± 0.7%. Further, the IC50 with GLI1 mRNA expression [3] (setting [6]) was 390 ± 270 nM; in the test with GLI1 mRNA expression [1] (setting [8]) it was 3700 ± 1000 nM; in the test on GLI1 mRNA expression [2] (setting [10]), over 10000 nM. In the test with GLI1 mRNA expression [2], the “reduction of GLI1 expression in ASZ001 (in words)” value is on record as “did not reduce GLI1 expression”.
Turning to `CCOc1ccc(C(Nc2ccccn2)c2ccc3ccc(C)nc3c2O)cc1OC` (racemic) [s7], the “% Gli1 Expression” value in the test on GLI1 mRNA expression [3] (mean ± SEM) is on record as over 100%.
Regarding `Cc1ccc2ccc(C(Nc3ccccn3)c3ccc(-n4ccc5ccccc54)cc3)c(O)c2n1` (stereo not shown) [Compound 47, 7-((4-(1H-indol-1-yl)phenyl)(pyridin-2-ylamino)methyl)-2-methylquinolin-8-ol], the IC50 came to 1700 ± 300 nM in the test with GLI1 mRNA expression [1] (setting [12]) and 10500 ± 3200 nM with GLI1 mRNA expression [2] (setting [13]). In addition, it took 62300 ± 13500 nM to inhibit growth with ASZ001 cells (Table 7, 48 h) by half (GI50).
Regarding `CCc1ccc(C(Nc2cc(C)ccn2)c2ccc3cccnc3c2O)cc1` (racemic) [s10], the “% Gli1 Expression” value with GLI1 mRNA expression [3] (mean ± SEM) stood at 79.4 ± 8.1%.
